Reference: ChEMBL document CHEMBL5325403, “Benzenesulfonyl thiazoloimines as unique multitargeting antibacterial agents towards Enterococcus faecalis” (Eur J Med Chem, 2023)
In brackets after ≈: the same amount, converted by molar mass.

How the values were obtained:
Type in all cases: functional
Staphylococcus aureus [1] = assay: Antibacterial activity against methicillin-resistant Staphylococcus aureus N315 assessed as inhibition of bacterial growth by continuous dilution method
Enterococcus faecalis = assay: Antibacterial activity against Enterococcus faecalis assessed as inhibition of bacterial growth by continuous dilution method
Staphylococcus aureus [2] = assay: Antibacterial activity against Staphylococcus aureus assessed as inhibition of bacterial growth by continuous dilution method
Staphylococcus aureus [3] = assay: Antibacterial activity against Staphylococcus aureus ATCC 25923 assessed as inhibition of bacterial growth by continuous dilution method
Staphylococcus aureus [4] = assay: Antibacterial activity against Staphylococcus aureus ATCC 29213 assessed as inhibition of bacterial growth by continuous dilution method
Klebsiella pneumoniae = assay: Antibacterial activity against Klebsiella pneumoniae assessed as inhibition of bacterial growth by continuous dilution method
Escherichia coli [5] = assay: Antibacterial activity against Escherichia coli assessed as inhibition of bacterial growth by continuous dilution method
Pseudomonas aeruginosa [6] = assay: Antibacterial activity against Pseudomonas aeruginosa assessed as inhibition of bacterial growth by continuous dilution method
Acinetobacter baumannii = assay: Antibacterial activity against Acinetobacter baumannii assessed as inhibition of bacterial growth by continuous dilution method
Pseudomonas aeruginosa [7] = assay: Antibacterial activity against Pseudomonas aeruginosa ATCC 27853 assessed as inhibition of bacterial growth by continuous dilution method
Escherichia coli [8] = assay: Antibacterial activity against Escherichia coli ATCC 25922 assessed as inhibition of bacterial growth by continuous dilution method

SMILES: CC(=O)Nc1ccc(S(=O)(=O)C/C(=N/NC(=O)c2cccnc2)c2nccs2)cc1
- MIC (Staphylococcus aureus [1]): 2 µg/mL (≈ 4.51 µM)
- MIC (Enterococcus faecalis): 128 µg/mL (≈ 289 µM)
- MIC (Staphylococcus aureus [2]): 8 µg/mL (≈ 18 µM)
- MIC (Staphylococcus aureus [3]): 2 µg/mL (≈ 4.51 µM)
- MIC (Staphylococcus aureus [4]): 128 µg/mL (≈ 289 µM)
- MIC (Klebsiella pneumoniae): 16 µg/mL (≈ 36.1 µM)
- MIC (Escherichia coli [5]): 32 µg/mL (≈ 72.2 µM)
- MIC (Pseudomonas aeruginosa [6]): 128 µg/mL (≈ 289 µM)
- MIC (Acinetobacter baumannii): 32 µg/mL (≈ 72.2 µM)
- MIC (Pseudomonas aeruginosa [7]): 16 µg/mL (≈ 36.1 µM)
- MIC (Escherichia coli [8]): 128 µg/mL (≈ 289 µM)

SMILES: CC(=O)Nc1ccc(S(=O)(=O)C/C(=N/OCC#N)c2nccs2)cc1
- MIC (Staphylococcus aureus [1]): 64 µg/mL (≈ 169 µM)
- MIC (Enterococcus faecalis): 64 µg/mL (≈ 169 µM)
- MIC (Staphylococcus aureus [2]): 64 µg/mL (≈ 169 µM)
- MIC (Staphylococcus aureus [3]): 128 µg/mL (≈ 338 µM)
- MIC (Staphylococcus aureus [4]): 64 µg/mL (≈ 169 µM)
- MIC (Klebsiella pneumoniae): 64 µg/mL (≈ 169 µM)
- MIC (Escherichia coli [5]): 32 µg/mL (≈ 84.6 µM)
- MIC (Pseudomonas aeruginosa [6]): 128 µg/mL (≈ 338 µM)
- MIC (Acinetobacter baumannii): 256 µg/mL (≈ 676 µM)
- MIC (Pseudomonas aeruginosa [7]): 64 µg/mL (≈ 169 µM)
- MIC (Escherichia coli [8]): 32 µg/mL (≈ 84.6 µM)

SMILES: CC(=O)Nc1ccc(S(=O)(=O)C/C(=N/OCc2ccc(Cl)cc2)c2nccs2)cc1
- MIC (Staphylococcus aureus [1]): 32 µg/mL (≈ 69 µM)
- MIC (Enterococcus faecalis): 64 µg/mL (≈ 138 µM)
- MIC (Staphylococcus aureus [2]): 128 µg/mL (≈ 276 µM)
- MIC (Staphylococcus aureus [3]): 64 µg/mL (≈ 138 µM)
- MIC (Staphylococcus aureus [4]): 64 µg/mL (≈ 138 µM)
- MIC (Klebsiella pneumoniae): 32 µg/mL (≈ 69 µM)
- MIC (Escherichia coli [5]): 64 µg/mL (≈ 138 µM)
- MIC (Pseudomonas aeruginosa [6]): 64 µg/mL (≈ 138 µM)
- MIC (Acinetobacter baumannii): 128 µg/mL (≈ 276 µM)
- MIC (Pseudomonas aeruginosa [7]): 32 µg/mL (≈ 69 µM)
- MIC (Escherichia coli [8]): 8 µg/mL (≈ 17.2 µM)

SMILES: COc1ccc(/C=C(/C(=O)c2nccs2)S(=O)(=O)c2ccc(NC(C)=O)cc2)cc1
- MIC (Staphylococcus aureus [1]): 4 µg/mL (≈ 9.04 µM)
- MIC (Enterococcus faecalis): 4 µg/mL (≈ 9.04 µM)
- MIC (Staphylococcus aureus [2]): 32 µg/mL (≈ 72.3 µM)
- MIC (Staphylococcus aureus [3]): 32 µg/mL (≈ 72.3 µM)
- MIC (Staphylococcus aureus [4]): 16 µg/mL (≈ 36.2 µM)
- MIC (Klebsiella pneumoniae): 32 µg/mL (≈ 72.3 µM)
- MIC (Escherichia coli [5]): 32 µg/mL (≈ 72.3 µM)
- MIC (Pseudomonas aeruginosa [6]): 128 µg/mL (≈ 289 µM)
- MIC (Acinetobacter baumannii): 128 µg/mL (≈ 289 µM)
- MIC (Pseudomonas aeruginosa [7]): 128 µg/mL (≈ 289 µM)
- MIC (Escherichia coli [8]): 64 µg/mL (≈ 145 µM)

SMILES: CC(=O)Nc1ccc(S(=O)(=O)/C(=C\c2ccc(C)cc2)C(=O)c2nccs2)cc1
- MIC (Staphylococcus aureus [1]): 128 µg/mL (≈ 300 µM)
- MIC (Enterococcus faecalis): 128 µg/mL (≈ 300 µM)
- MIC (Staphylococcus aureus [2]): 256 µg/mL (≈ 600 µM)
- MIC (Staphylococcus aureus [3]): 256 µg/mL (≈ 600 µM)
- MIC (Staphylococcus aureus [4]): 256 µg/mL (≈ 600 µM)
- MIC (Klebsiella pneumoniae): 256 µg/mL (≈ 600 µM)
- MIC (Escherichia coli [5]): 256 µg/mL (≈ 600 µM)
- MIC (Pseudomonas aeruginosa [6]): 128 µg/mL (≈ 300 µM)
- MIC (Acinetobacter baumannii): 256 µg/mL (≈ 600 µM)
- MIC (Pseudomonas aeruginosa [7]): 128 µg/mL (≈ 300 µM)
- MIC (Escherichia coli [8]): 256 µg/mL (≈ 600 µM)

SMILES: CC(=O)Nc1ccc(S(=O)(=O)C/C(=N/OCc2ccc(Cl)cc2Cl)c2nccs2)cc1
- MIC (Staphylococcus aureus [1]): 64 µg/mL (≈ 128 µM)
- MIC (Enterococcus faecalis): 64 µg/mL (≈ 128 µM)
- MIC (Staphylococcus aureus [2]): 128 µg/mL (≈ 257 µM)
- MIC (Staphylococcus aureus [3]): 128 µg/mL (≈ 257 µM)
- MIC (Staphylococcus aureus [4]): 128 µg/mL (≈ 257 µM)
- MIC (Klebsiella pneumoniae): 64 µg/mL (≈ 128 µM)
- MIC (Escherichia coli [5]): 64 µg/mL (≈ 128 µM)
- MIC (Pseudomonas aeruginosa [6]): 64 µg/mL (≈ 128 µM)
- MIC (Acinetobacter baumannii): 128 µg/mL (≈ 257 µM)
- MIC (Pseudomonas aeruginosa [7]): 32 µg/mL (≈ 64.2 µM)
- MIC (Escherichia coli [8]): 16 µg/mL (≈ 32.1 µM)

SMILES: CCCCCCCCO/N=C(/CS(=O)(=O)c1ccc(NC(C)=O)cc1)c1nccs1
- MIC (Staphylococcus aureus [1]): 64 µg/mL (≈ 142 µM)
- MIC (Enterococcus faecalis): 64 µg/mL (≈ 142 µM)
- MIC (Staphylococcus aureus [2]): 128 µg/mL (≈ 283 µM)
- MIC (Staphylococcus aureus [3]): 64 µg/mL (≈ 142 µM)
- MIC (Staphylococcus aureus [4]): 64 µg/mL (≈ 142 µM)
- MIC (Klebsiella pneumoniae): 64 µg/mL (≈ 142 µM)
- MIC (Escherichia coli [5]): 32 µg/mL (≈ 70.9 µM)
- MIC (Pseudomonas aeruginosa [6]): 64 µg/mL (≈ 142 µM)
- MIC (Acinetobacter baumannii): 128 µg/mL (≈ 283 µM)
- MIC (Pseudomonas aeruginosa [7]): 64 µg/mL (≈ 142 µM)
- MIC (Escherichia coli [8]): 16 µg/mL (≈ 35.4 µM)

SMILES: CC(=O)Nc1ccc(S(=O)(=O)/C(=C\c2ccc([N+](=O)[O-])cc2)C(=O)c2nccs2)cc1
- MIC (Staphylococcus aureus [1]): 128 µg/mL (≈ 280 µM)
- MIC (Enterococcus faecalis): 128 µg/mL (≈ 280 µM)
- MIC (Staphylococcus aureus [2]): 256 µg/mL (≈ 560 µM)
- MIC (Staphylococcus aureus [3]): 256 µg/mL (≈ 560 µM)
- MIC (Staphylococcus aureus [4]): 256 µg/mL (≈ 560 µM)
- MIC (Klebsiella pneumoniae): 128 µg/mL (≈ 280 µM)
- MIC (Escherichia coli [5]): 32 µg/mL (≈ 69.9 µM)
- MIC (Pseudomonas aeruginosa [6]): 64 µg/mL (≈ 140 µM)
- MIC (Acinetobacter baumannii): 256 µg/mL (≈ 560 µM)
- MIC (Pseudomonas aeruginosa [7]): 64 µg/mL (≈ 140 µM)
- MIC (Escherichia coli [8]): 64 µg/mL (≈ 140 µM)

SMILES: CCCCO/N=C(/CS(=O)(=O)c1ccc(NC(C)=O)cc1)c1nccs1
- MIC (Staphylococcus aureus [1]): 64 µg/mL (≈ 162 µM)
- MIC (Enterococcus faecalis): 64 µg/mL (≈ 162 µM)
- MIC (Staphylococcus aureus [2]): 64 µg/mL (≈ 162 µM)
- MIC (Staphylococcus aureus [3]): 128 µg/mL (≈ 324 µM)
- MIC (Staphylococcus aureus [4]): 64 µg/mL (≈ 162 µM)
- MIC (Klebsiella pneumoniae): 16 µg/mL (≈ 40.5 µM)
- MIC (Escherichia coli [5]): 32 µg/mL (≈ 80.9 µM)
- MIC (Pseudomonas aeruginosa [6]): 64 µg/mL (≈ 162 µM)
- MIC (Acinetobacter baumannii): 128 µg/mL (≈ 324 µM)
- MIC (Pseudomonas aeruginosa [7]): 64 µg/mL (≈ 162 µM)
- MIC (Escherichia coli [8]): 16 µg/mL (≈ 40.5 µM)

SMILES: C#CCO/N=C(/CS(=O)(=O)c1ccc(N)cc1)c1nccs1
- MIC (Staphylococcus aureus [1]): 64 µg/mL (≈ 191 µM)
- MIC (Enterococcus faecalis): 64 µg/mL (≈ 191 µM)
- MIC (Staphylococcus aureus [2]): 64 µg/mL (≈ 191 µM)
- MIC (Staphylococcus aureus [3]): 32 µg/mL (≈ 95.4 µM)
- MIC (Staphylococcus aureus [4]): 64 µg/mL (≈ 191 µM)
- MIC (Klebsiella pneumoniae): 32 µg/mL (≈ 95.4 µM)
- MIC (Escherichia coli [5]): 32 µg/mL (≈ 95.4 µM)
- MIC (Pseudomonas aeruginosa [6]): 64 µg/mL (≈ 191 µM)
- MIC (Acinetobacter baumannii): 64 µg/mL (≈ 191 µM)
- MIC (Pseudomonas aeruginosa [7]): 32 µg/mL (≈ 95.4 µM)
- MIC (Escherichia coli [8]): 32 µg/mL (≈ 95.4 µM)

SMILES: CC(=O)Nc1ccc(S(=O)(=O)/C(=C\c2ccccc2Cl)C(=O)c2nccs2)cc1
- MIC (Staphylococcus aureus [1]): 256 µg/mL (≈ 573 µM)
- MIC (Enterococcus faecalis): 16 µg/mL (≈ 35.8 µM)
- MIC (Staphylococcus aureus [2]): 32 µg/mL (≈ 71.6 µM)
- MIC (Staphylococcus aureus [3]): 64 µg/mL (≈ 143 µM)
- MIC (Staphylococcus aureus [4]): 128 µg/mL (≈ 286 µM)
- MIC (Klebsiella pneumoniae): 16 µg/mL (≈ 35.8 µM)
- MIC (Escherichia coli [5]): 16 µg/mL (≈ 35.8 µM)
- MIC (Pseudomonas aeruginosa [6]): 256 µg/mL (≈ 573 µM)
- MIC (Acinetobacter baumannii): 128 µg/mL (≈ 286 µM)
- MIC (Pseudomonas aeruginosa [7]): 32 µg/mL (≈ 71.6 µM)
- MIC (Escherichia coli [8]): 64 µg/mL (≈ 143 µM)

SMILES: CC(=O)Nc1ccc(S(=O)(=O)/C(=C\c2ccc(Cl)cc2Cl)C(=O)c2nccs2)cc1
- MIC (Staphylococcus aureus [1]): 128 µg/mL (≈ 266 µM)
- MIC (Enterococcus faecalis): 128 µg/mL (≈ 266 µM)
- MIC (Staphylococcus aureus [2]): 128 µg/mL (≈ 266 µM)
- MIC (Staphylococcus aureus [3]): 64 µg/mL (≈ 133 µM)
- MIC (Staphylococcus aureus [4]): 256 µg/mL (≈ 532 µM)
- MIC (Klebsiella pneumoniae): 128 µg/mL (≈ 266 µM)
- MIC (Escherichia coli [5]): 256 µg/mL (≈ 532 µM)
- MIC (Pseudomonas aeruginosa [6]): 128 µg/mL (≈ 266 µM)
- MIC (Acinetobacter baumannii): 256 µg/mL (≈ 532 µM)
- MIC (Pseudomonas aeruginosa [7]): 128 µg/mL (≈ 266 µM)
- MIC (Escherichia coli [8]): 256 µg/mL (≈ 532 µM)

SMILES: CCCCO/N=C(/CS(=O)(=O)c1ccc(N)cc1)c1nccs1
- MIC (Staphylococcus aureus [1]): 64 µg/mL (≈ 181 µM)
- MIC (Enterococcus faecalis): 16 µg/mL (≈ 45.3 µM)
- MIC (Staphylococcus aureus [2]): 32 µg/mL (≈ 90.5 µM)
- MIC (Staphylococcus aureus [3]): 32 µg/mL (≈ 90.5 µM)
- MIC (Staphylococcus aureus [4]): 64 µg/mL (≈ 181 µM)
- MIC (Klebsiella pneumoniae): 16 µg/mL (≈ 45.3 µM)
- MIC (Escherichia coli [5]): 32 µg/mL (≈ 90.5 µM)
- MIC (Pseudomonas aeruginosa [6]): 32 µg/mL (≈ 90.5 µM)
- MIC (Acinetobacter baumannii): 64 µg/mL (≈ 181 µM)
- MIC (Pseudomonas aeruginosa [7]): 32 µg/mL (≈ 90.5 µM)
- MIC (Escherichia coli [8]): 32 µg/mL (≈ 90.5 µM)
